From patent US10045980B2, “Inhibitor of p38 map kinase” (RESPIVERT LTD, priority 2014, dated 2018)

How the values were obtained:
d-U937 cells = assay: LPS-induced TNFα/IL-8 release in d-U937 cells; format: cell-based; details: Homo sapiens
Experimental: U937 cells, a human monocytic cell line, were differentiated into macrophage-type cells by incubation with PMA (100-200 ng/mL) for 48 to 72 hr. Cells were pre-incubated with final concentrations of test compound for 2 h and were then stimulated with LPS (0.1 μg/mL; from E. Coli: 0111:64, Sigma) for 4 h. The supernatant was collected for determination of TNFα and IL-8 concentrations by sandwich ELISA (Duo-set, R&D systems). […] The relative 50% effective concentration (REC50) was determined from the resultant concentration-response curve. The inhibition of IL-8 production was calculated at each concentration of test compound by comparison with vehicle control.

GSK 3α enzyme isoform = molecular target: T1, GSK 3α enzyme isoform (Homo sapiens, UniProt P49840); assay: GSK 3α enzyme inhibition (Z-LYTE FRET); format: biochemical; details: read-out: IC50 Values for Enzyme Inhibition GSK3α
T1 construct: purchased Life Technologies
Experimental: (§1) The enzyme inhibitory activities of the compound disclosed herein were determined by FRET using synthetic peptides labelled with both donor and acceptor fluorophores (Z-LYTE, Life Technologies, Paisley, UK).
Development reagent (protease, 5 μL) was added for 1 h prior to detection in a fluorescence microplate reader (EnVision, Perkin Elmer).
(§2) In all cases, the site-specific protease cleaves non-phosphorylated peptide only and eliminates the FRET signal. Phosphorylation levels of each reaction were calculated using the ratio of coumarin emission (donor) over fluorescein emission (acceptor), for which low ratios indicate high phosphorylation and high ratios indicate low phosphorylation levels.

[1] = system: BEAS2B cells infected with human rhinovirus RV16; assay: Rhinovirus-induced IL-8 release; format: cell-based; details: FIG. 9
Experimental: Human rhinovirus RV16 is obtained from the American Type Culture Collection (Manassas, Va.). Viral stocks are generated by infecting MRC5 cells with HRV until 80% of the cells were cytopathic.
BEAS2B cells are infected with HRV at an MOI of 1.2 and incubated for 1 h at 33° C. with gentle shaking for to promote absorption. The cells are then washed with PBS, fresh media added and the cells are incubated for a further 72 h. The supernatant is collected for assay of IL-8 concentrations using a Duoset ELISA development kit (R&D systems, Minneapolis, Minn.). Compounds are added 2 h before HRV infection and 1 h after infection when non-infected HRV is washed out.

BEAS2B cells = assay: Poly I:C-induced ICAM-1 expression in BEAS2B cells; format: cell-based; details: Homo sapiens, BEAS-2B, 18 h after poly I:C transfection, read-out: PolyIC/ICAM1 IC50 (BEAS2B)
Experimental: Poly I:C was used in these studies as a simple, RNA virus mimic. Poly I:C-Oligofectamine mixture (2% Oligofectamine±1 μg/mL Poly I:C, 25 μL; Life Technologies and Invivogen Ltd., San Diego, Calif., respectively) was transfected into BEAS2B cells (human bronchial epithelial cells, ATCC). Cells were pre-incubated with final concentrations of test compounds for 2 h and the level of ICAM-1 expression on the cell surface was determined by cell-based ELISA. […]
The cells were washed with PBS-Tween (3×200 μL) and incubated with the secondary antibody (100 μL; HRP-conjugated anti-rabbit IgG, Dako Ltd., Glostrup, Denmark). […] The ICAM-1 signal was detected by reading the absorbance at 450 nm against a reference wavelength of 655 nm using a spectrophotometer. The cells were then washed with PBS-Tween (3×200 μL) and total cell numbers in each well were determined by reading absorbance at 595 nm after Crystal Violet staining (50 μL of a 2% solution in PBS) and elution by 1% SDS solution (100 μL) in PBS. The measured OD 450-655 readings were corrected for cell number by dividing with the OD595 reading in each well. The inhibition of ICAM-1 expression was calculated at each concentration of test compound by comparison with vehicle control.

[2] = molecular target: T2, p38 MAPKα isoform (MAPK14) (Homo sapiens, UniProt Q16539); assay: p38 MAPKα enzyme inhibition (Z-LYTE FRET); format: biochemical
T2 construct: purchased Life Technologies
Experimental: as §1
The enzyme (40 ng/mL, 2.5 μL) was incubated with the test compound (2.5 μL of either 40 μg/mL, 12 μg/mL, 4 μg/mL, 1.2 μg/mL, 0.4 μg/mL, 0.12 μg/mL, 0.04 μg/mL, 0.012 μg/mL, 0.004 μg/mL or 0.0012 μg/mL) for 2 h at RT. […] Development reagent (protease, 5 μL) was added for 1 h prior to detection in a fluorescence microplate reader (EnVision, Perkin Elmer, Waltham, Mass., USA).
as §2

T1 sequence (P49840 whole entry, canonical isoform): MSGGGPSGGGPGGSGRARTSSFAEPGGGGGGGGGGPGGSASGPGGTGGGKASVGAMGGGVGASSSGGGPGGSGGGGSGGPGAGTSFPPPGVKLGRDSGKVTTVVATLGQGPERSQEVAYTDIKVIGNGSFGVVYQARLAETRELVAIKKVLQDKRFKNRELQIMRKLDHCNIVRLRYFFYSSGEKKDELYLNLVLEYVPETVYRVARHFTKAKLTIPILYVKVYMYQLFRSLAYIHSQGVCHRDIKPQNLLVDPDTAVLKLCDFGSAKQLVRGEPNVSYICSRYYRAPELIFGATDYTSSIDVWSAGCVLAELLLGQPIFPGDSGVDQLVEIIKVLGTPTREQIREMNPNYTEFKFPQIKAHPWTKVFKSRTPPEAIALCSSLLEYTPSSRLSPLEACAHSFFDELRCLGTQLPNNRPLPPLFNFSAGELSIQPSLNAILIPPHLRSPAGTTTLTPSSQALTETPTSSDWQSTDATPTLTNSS
T2 sequence (Q16539 whole entry, canonical isoform): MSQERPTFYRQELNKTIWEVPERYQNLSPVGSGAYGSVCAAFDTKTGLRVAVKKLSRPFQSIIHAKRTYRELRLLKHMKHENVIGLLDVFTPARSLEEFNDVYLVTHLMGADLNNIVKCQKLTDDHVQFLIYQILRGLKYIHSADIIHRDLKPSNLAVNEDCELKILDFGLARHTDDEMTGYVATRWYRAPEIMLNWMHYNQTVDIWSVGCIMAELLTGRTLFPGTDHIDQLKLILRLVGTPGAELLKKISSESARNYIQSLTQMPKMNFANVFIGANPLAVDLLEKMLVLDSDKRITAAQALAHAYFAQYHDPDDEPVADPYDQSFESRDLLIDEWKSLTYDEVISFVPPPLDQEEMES

SMILES: CCc1cncc(Nc2cc(COc3ccc(NC(=O)Nc4cc(C(C)(C)C)nn4-c4ccc(C)cc4)c4ccccc34)ccn2)n1 [Compound of the invention, 1-(3-(tert-butyl)-1-(p-tolyl)-1H-pyrazol-5-yl)-3-(4-((2-((6-ethylpyrazin-2-yl)amino)pyridin-4-yl)methoxy)naphthalen-1-yl)urea]
- EC50 (d-U937 cells; dU937, 4 h, read-out: LPS Induced Release TNFα REC50 (dU937)): 0.0055 µM
- IC50 (d-U937 cells; dU937, d-U937 cells, LPS 0.1 μg/mL, 4 h): 0.0114 µM
- IC50 (GSK 3α enzyme isoform): > 15.1 µM
- inhibition of HRV-induced IL-8 [1]: dose-dependent inhibition
- IC50 (BEAS2B cells): 0.0611 µM
- IC50 [2]: 0.026 µM
